The values below are quoted from earlier work in patent US20080146444A1, “Method and compositions for improving plant growth” (Polymer Ventures, Inc., priority 2006, published 2008).

The subject of one series is plant. Conditions: applied at 14 ppm to 1400 ppm (0.1-10 millimolar).
Another series deals with Xylella fastidiosa. Conditions: 62.5 ppm.
The next series concerns cucumber seed radicle. As to conditions: levels as low as 7-174 ppm (0.00002 M to 0.0005 M).

Turning to `C=C(C)[C@H]1CC=C(C)CC1` [limonene], in the series on plant, the “plant primary root growth” value is on record as “no improvement” and the seed germination result is “no improvement”.
Turning to `CC(C)=CCCC(C)=CC=O` [citral], the “kill of Xylella fastidiosa” value in the series with Xylella fastidiosa was “incomplete kill”.
For `CC(C)C1CCC(C)(O)C([N+](C)(C)C2CCCC2)C1.[Br-]` (stereo not shown) [cyclopentyl dimethyl (1-hydroxy-p-menth-2-yl)ammonium bromide], in the series with cucumber seed radicle, the “cucumber seed radicle growth” value is reported as “inhibited”.
